How the values were obtained:
[1] = test system: Sugen 5416/chronic hypoxia mouse model; test: Study 3: 6 weeks Sugen5416/chronic hypoxia mouse model of pulmonary hypertension, ultrasound assessment; type: in vivo
Procedure: Eleven to thirteen week old Taconic C57BL/6 mice were used. Mice were separated into treatment groups by weight such that starting body weights were similar among different groups. Cages were selected to either remain at about 21% O2 (normobaric normoxia) or placed into 10% O2 (normobaric hypoxia) chamber (a modified 3′ Semi-Rigid Isolator unit, Charles River) that maintained low O2 levels with adjustment of N2 flow to a steady intake of room air. Mice were administered Sugen5416 (Sigma, Cat#58442; VEGFR inhibitor subcutaneously at 20 mg/kg weekly for 6 weeks) and drugs or saline starting on day 21. A group of mice (n=10) housed in normobaric normoxia cages were subcutaneously administered saline at 5 mL/kg twice per week for three weeks, while mice housed in normobaric hypoxia cages were separated into 5 treatment groups including a group of mice (n=10) subcutaneously treated with saline at 5 mL/kg twice per week for three weeks, a group of mice (n=9) orally administered Bosentan (Sequoia Research Products Cat SRP02325b) at 300 mg/kg every day for three weeks, a group of mice (n=10) subcutaneously administered an isotype control antibody at 25 mg/kg twice per week for three weeks, a group of mice (n=10) subcutaneously treated with the anti-Gremlin-1 antibody at 25 mg/kg twice a week for three weeks, a group of mice (n=9) subcutaneously treated with an anti-Gremlin-1 antibody at 25 mg/kg twice a week for three weeks and orally administered Bosentan at 300 mg/kg every day for three weeks. [table] On the last day of the study, pulmonary artery size and right ventricular function and dimensions were assessed in each mouse using a high frequency ultrasound system (Vevo 2100, VisualSonics). For the assessment, mice were anesthetized (with 1.5% isoflurane at a rate of 1.0 cc/mL of medical grade air) and their temperature was monitored with a rectal temperature probe and held at approximately 37° C. with a heated platform (MouseMonitorS, Indus Instruments) and a warming lamp. Both brightness-mode (B-mode) and motion-mode (M-mode) imaging were used. B-mode imaging of the mouse heart in cross-section was used to determine pulmonary artery cross-sectional area (PA CSA) at the level of the pulmonary valve. M-mode imaging was used to determine the pulsed wave velocity time integral (VTI), which is derived from the area under the curve of representative Doppler tracings of blood flow through the pulmonary artery. Right ventricular stroke volume (RV SV) was calculated from the product of PA CSA and VTI. Right ventricular cardiac output (RV CO) was calculated from the product of SV and heart rate (HR). M-mode imaging was used to determine right ventricular free wall (RVFW) thickness during diastole and systole. Animals were returned to their home cages before right ventricular pressure assessment.

[2] = test system: chronic hypoxia-induced pulmonary arterial hypertension mouse model; test: Study 1: 4 week chronic hypoxia mouse model of pulmonary arterial hypertension, ultrasound assessment; type: in vivo; conditions: study not given
From the text: For both studies, eleven to thirteen-week-old Taconic C57BL/6 mice were used. Mice were separated into treatment groups by weight such that starting body weights were similar among different groups. Cages were selected to either remain at about 21% O2 (normobaric normoxia) or placed into a 10% O2 (normobaric hypoxia) chamber (a modified 3′ Semi-Rigid Isolator unit, Charles River) that maintained low O2 levels with adjustment of N2 flow to a steady intake of room air.
For the first study (Study 1), mice were administered drugs or saline starting on day 14. […]
On the last day of each study, pulmonary artery size and right ventricular function and dimensions were assessed in each mouse using a high frequency ultrasound system (Vevo 2100, VisualSonics). For the assessment, mice were anesthetized (with 1.5% isoflurane at a rate of 1.0 cc/mL of medical grade air) and their temperature was monitored with a rectal temperature probe and held at approximately 37° C. with a heated platform (MouseMonitorS, Indus Instruments) and a warming lamp. […] Right ventricular stroke volume (RV SV) was calculated from the product of PA CSA and VTI. Right ventricular cardiac output (RV CO) was calculated from the product of SV and heart rate (HR). […]

[3] = Study 3, normobaric hypoxia + Sugen5416 6 weeks, 300 mg/kg PO daily from day 21

COc1ccccc1Oc1c(NS(=O)(=O)c2ccc(C(C)(C)C)cc2)nc(-c2ncccn2)nc1OCCO [Bosentan]
PA CSA greater than hypoxic saline-treated group ([1]; Study 3, Sugen5416/hypoxia, 300 mg/kg PO daily, significant): ~43%
Heart rate (Ave ± SEM) [1, 3]: 509.7 ± 18.9 beats/min
PA CSA (Ave ± SEM) [1, 3]: 1.724 ± 0.074^%%% mm^2
Right Ventricular cardiac output (Ave ± SEM) [1, 3]: 17.81 ± 1.46^%% ml/min
Stroke Volume (Ave ± SEM) [1, 3]: 35.51 ± 3.22^%% ul

B1: H4H6245P: fully human anti-GREM1 antibody, HCVR/LCVR SEQ ID NOs 434/442; relation to H4H6245P2 not stated (antibody, V domains shown)
VH: EVQLVESGGGLVQPGGSLRLSCAASGFTFNSFWMSWVRQAPGKGLEWVANIKQDGSEKYYVDSVKGRFTISRDNAKNSVYLQMNSLRAEDTAVYYCARDLVTSFDYWGQGTLVTVSS
VL: DIQMTQSPSSLSASVGDRVTITCQASQDINNYLNWYQQKPGKAPKLLIYDASYLETGVPSGFSGSGSGTDFTFTISSLQPEDIATYYCQQYDSLPYTFGQGTKLEIK
Pulmonary artery size (cross-sectional area), result in words ([2]; FIG. 1A legend): near normoxic levels
Right ventricular stroke volume, result in words ([2]; FIG. 1B legend): near normoxic levels

Source: patent US20180057580A1, “ANTI-GREMLIN-1 (GREM1) ANTIBODIES AND METHODS OF USE THEREOF FOR TREATING PULMONARY ARTERIAL HYPERTENSION” (priority 2016, published 2018)
